In patent publication US20110065663A1, “ANTI-CANCER COMBINATION THERAPY” (Katholieke Universiteit Leuven, K.U. Leuven R&D, priority 2008, published 2011):

Tests used:
[1] = system: MCF-7/HYOR cells; experiment: Nucleotide incorporation assay, MCF-7/HYOR compared with MCF-7 cells; type: cell-based, human; settings: 1 μCi radiolabeled compound; FIG. 4
Description: MCF-7 and MCF-7/HYOR cells were seeded at 10,000 cells/cm. After 48 hours, cells were treated with 1 μCi of ^3H-labeled nucleoside with or without 10 μM TPi. 16 h later, the medium was removed and the cells were washed twice with PBS. Next, the cells were trypsinized, transferred to Eppendorf tubes and centrifuged for 10 minutes at 1,400 rpm. The pellet was resuspended in 1 ml absolute ice-cold methanol and kept on ice for 20 minutes. After centrifugation for 20 minutes at 13,000 rpm the pellet was washed twice with methanol, resuspended in methanol and transferred to scintillation vials containing 9 ml of Ready safe liquid scintillation reagent (‘Hisafe 3’, Perkin Elmer, Waltham, Mass.). The radioactivity was measured by a Liquid scintillation analyzer (2300 TR, Packard, Canberra, Australia).

[2] = system: M. hyorhinis TP; experiment: TP activity in the medium of MCF-7/HYOR cell cultures (HPLC, conversion of nucleoside to free base); type: biochemical, Mycoplasma hyorhinis; settings: 200 μM substrate, 37° C.
Description: (§1) The TP activity of M. hyorhinis and the conversion of dThd, FdUrd, 5′DFUR and TFT to thymine, 5FU, 5FU or TF-thymine respectively were measured by high-pressure liquid chromatography (HPLC) analysis. MCF-7 and MCF-7/HYOR cells were seeded at a density of 20,000 cells/cm^2 in DMEM with 10% FBS. Four days later, the medium was collected and cleared by centrifugation at 1,400 rpm. For some experiments, the medium of MCF-7/HYOR cells was filtered using a 0.1 μm micro filter (Acrodisc syringe filter, PALL Corporation, East Hills, N.Y.) to remove the mycoplasmas from the medium. 600 μl of the medium was incubated with 200 μM of substrate (dThd, 5′DFUR, TFT or FdUrd) at 37° C. in the presence or absence of 10 μM TPi. At different time points (i.e. 0, 15, 30, 60, 120 minutes and 16 hours), 100 μl aliquots were withdrawn, transferred to Eppendorf tubes and heated at 95° C. for 3 min. Next, the samples were rapidly cooled on ice, exposed for 20 min to 200 μl ice-cold methanol and cleared by centrifugation at 15,000 rpm for 15 minutes. As a positive control, an enzyme activity assay with E. coli TP (Sigma) was performed. For this reaction, 0.025 U of TP were incubated with 200 μM of substrate in TP-buffer (10 mM Tris-HCl, pH 7.6, 1 mM EDTA, 2 mM potassium phosphate and 150 mM NaCl) in a total volume of 600 μl. Aliquots of 100 μl were withdrawn from the reaction mixture at several time points and treated as described above. The nucleosides were separated from their nucleobases on a reversed-phase RP-8 column (Merck, Darmstadt, Germany) and quantified by HPLC analysis (Aliance 2690, Waters, Milford, Mass.). The separation was performed by a linear gradient from 100% buffer B (50 mM NaH2PO4 and 5 mM heptane sulfonic acid, pH 3.2), to 20% buffer B and 80% acetonitrile. […] UV-based detection of all nucleosides was performed at 267 nm.

[3] = Conversion of nucleosides in the medium of uninfected MCF-7 cells; type: biochemical, human; settings: even after 24 hours of incubation; data not shown
Description: as §1, with “At different time points (i.e. 0, 15, 30, 60, 120 minutes and 16 hours), 100 μl aliquots were withdrawn, transferred to Eppendorf tubes and heated at 95° C. for 3 min.” left out

SMILES	Incorporation into nucleic acids, infected versus uninfected MCF-7 cells (in words) [1]	Percent conversion of nucleoside to the free pyrimidine base in MCF-7/HYOR medium ([2]; 2 hours) [%]	Percent conversion of nucleoside to the free pyrimidine base in MCF-7/HYOR medium ([2]; 16 hours) [%]	Conversion in the medium of uninfected MCF-7 cells [3]	Reduction of incorporation into nucleic acids in infected MCF-7/HYOR cells in comparison with uninfected MCF-7 cells [1] [fold]
O=c1[nH]c(=O)n([C@H]2C[C@H](O)[C@@H](CO)O2)cc1F [FdUrd, 5-fluoro-2′-deoxyuridine]	did not affect	43	77	no conversion	
O=c1[nH]c(=O)n([C@H]2C[C@H](O)[C@@H](CO)O2)cc1C(F)(F)F [TFT, 5-trifluorothymidine]		8	55	no conversion	40
